Assay results taken from patent US20120270929A1, “MODULATION OF TTC39 EXPRESSION TO INCREASE HDL” (ISIS Pharmaceuticals, Inc., priority 2009, published 2012).
Oligonucleotides are written 5' to 3', each unit as a sugar letter and its base; * is a phosphorothioate linkage, no mark a phosphodiester; rarer units and linkages stand in square brackets, end groups in braces. Plain capitals give the bases only. e = 2'-O-(2-methoxyethyl) (MOE); [5mC] = 5-methylcytosine; d = 2'-deoxy (DNA)

Columns and labels:
Format in all cases: cell-based
[1] = system: murine TTC39B mRNA; experiment: Dose-dependent antisense inhibition of murine TTC39B in mouse primary hepatocytes (Example 2); conditions: cytofectin, ~16 h
Method: Cells were plated at a density of 10,000 cells per well and transfected using cytofectin reagent with 25 nM, 50 nM, 100 nM, and 200 nM concentrations of antisense oligonucleotide, as specified in Table 3. After a treatment period of approximately 16 hours, RNA was isolated from the cells and TTC39B mRNA levels were measured by quantitative real-time PCR. Murine primer probe set mTtc39b_LTS00287 (forward sequence: […], incorporated herein as SEQ ID NO: 94; reverse sequence: […], incorporated herein as SEQ ID NO: 95; probe sequence: […], incorporated herein as SEQ ID NO: 96) was used to measure mRNA levels. TTC39B mRNA levels were adjusted according to total RNA content, as measured by RIBOGREEN®. Results are presented as percent inhibition of TTC39B, relative to untreated control cells.

[2] = system: murine TTC39B mRNA; experiment: Antisense inhibition of murine TTC39B in mouse primary hepatocytes, single dose; conditions: 100 nM, cytofectin, ~24 h, vs untreated control; gapmers targeted to SEQ ID NO: 10-14
Method in brief: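 Mouse primary hepatocytes transfected by cytofectin with 100 nM 5-10-5 MOE gapmer (20-mer, phosphorothioate, 5-methylcytosine) for ~24 h. TTC39B mRNA quantified by real-time qPCR, normalized to RIBOGREEN total RNA. Values given as percent inhibition versus untreated cells.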

[3] = system: murine TTC39B mRNA; experiment: Dose-dependent antisense inhibition of murine TTC39B in mouse primary hepatocytes (Example 3); conditions: cytofectin, ~16 h
Method: Cells were plated at a density of 10,000 cells per well and transfected using cytofectin reagent with 6.25 nM, 12.5 nM, 25 nM, 50 nM, 100 nM, and 200 nM concentrations of antisense oligonucleotide, as specified in Table 4. After a treatment period of approximately 16 hours, RNA was isolated from the cells and TTC39B mRNA levels were measured by quantitative real-time PCR. Murine primer probe set mTtc39b_LTS00287 was used to measure mRNA levels. TTC39B mRNA levels were adjusted according to total RNA content, as measured by RIBOGREEN®. Results are presented as percent inhibition of TTC39B, relative to untreated control cells.

[4] = system: murine TTC39C mRNA; experiment: Dose-dependent antisense inhibition of murine TTC39C in mouse primary hepatocytes; conditions: electroporation, ~16 h; for IC50: mouse primary hepatocytes
Method in brief: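 Mouse primary hepatocytes (30,000/well) electroporated with antisense oligonucleotide at 500, 1,000, 2,000, 4,000 or 8,000 nM and harvested after about 16 h. TTC39C mRNA quantified by RT-qPCR (primer probe set RTS3266), normalised to RIBOGREEN total RNA; percent inhibition versus untreated cells.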

[5] = system: murine TTC39C mRNA; experiment: Antisense inhibition of mouse TTC39C in mouse primary hepatocytes, single dose; conditions: 8,000 nM antisense oligonucleotide, electroporation, approximately 24 hours, TTC39C mRNA by real-time PCR (RTS3266), relative to untreated control cells
Method: Antisense oligonucleotides were designed targeting a TTC39C nucleic acid and were tested for their effects on TTC39C mRNA in vitro. Cultured mouse primary hepatocytes at a density of 30,000 cells per well were transfected by electroporation with 8,000 nM antisense oligonucleotide. After a treatment period of approximately 24 hours, RNA was isolated from the cells and TTC39C mRNA levels were measured by quantitative real-time PCR. Mouse primer probe set RTS3266 (forward sequence […], designated herein as SEQ ID NO: 140; reverse sequence […], designated herein as SEQ ID NO: 141; probe sequence […], designated herein as SEQ ID NO: 142). TTC39C mRNA levels were adjusted according to total RNA content, as measured by RIBOGREEN®. Results are presented as percent inhibition of TTC39C, relative to untreated control cells.
The chimeric antisense oligonucleotides targeting TTC39C were designed as 5-10-5 MOE gapmers. The gapmers are 20 nucleotides in length, wherein the central gap segment is comprised of ten 2′-deoxynucleotides and is flanked on both sides (in the 5′ and 3′ directions) by wings comprising five nucleotides each. Each nucleotide in the 5′ wing segment and each nucleotide in the 3′ wing segment has a 2′-MOE modification. The internucleoside linkages throughout each gapmer are phosphorothioate (P═S) linkages. All cytosine residues throughout each gapmer are 5-methylcytosines. “Mouse Target start site” indicates the 5′-most nucleotide to which the gapmer is targeted in the mouse gene sequence.

Row | Substance | percent inhibition of TTC39B mRNA ([1]; 25 nM) | percent inhibition of TTC39B mRNA ([1]; 50 nM) | percent inhibition of TTC39B mRNA ([1]; 100 nM) | percent inhibition of TTC39B mRNA ([1]; 200 nM) | % inhibition of murine TTC39B mRNA [2] | percent inhibition of TTC39B mRNA ([3]; 6.25 nM) | percent inhibition of TTC39B mRNA ([3]; 12.5 nM) | percent inhibition of TTC39B mRNA ([3]; 25.0 nM) | percent inhibition of TTC39B mRNA ([3]; 50.0 nM) | percent inhibition of TTC39B mRNA ([3]; 100.0 nM) | percent inhibition of TTC39B mRNA ([3]; 200.0 nM) | percent inhibition of TTC39C mRNA ([4]; 500.0 nM) | percent inhibition of TTC39C mRNA ([4]; 1000.0 nM) | percent inhibition of TTC39C mRNA ([4]; 2000.0 nM) | percent inhibition of TTC39C mRNA ([4]; 4000.0 nM) | percent inhibition of TTC39C mRNA ([4]; 8000.0 nM) | IC50 [4] | % inhibition [5]
1 | TGTCAGTGACAGTGGCAGCT (antisense eT*eG*eT*e[5mC]*eA*dG*dT*dG*dA*d[5mC]*dA*dG*dT*dG*dG*e[5mC]*eA*eG*e[5mC]*eT) [ISIS 447159] | 41% | 60% | 76% | 85% | 71% | 12% | 19% | 37% | 62% | 78% | 86% | – | – | – | – | – | – | –
2 | ISIS 474592: 5-10-5 MOE gapmer antisense oligonucleotide targeting murine TTC39C (antisense eG*eA*eA*eG*e[5mC]*dA*dT*dA*dT*dT*dG*dA*dT*dG*d[5mC]*e[5mC]*eA*eG*e[5mC]*e[5mC]) | – | – | – | – | – | – | – | – | – | – | – | 24% | 45% | 71% | 84% | 92% | 1200 nM | 93%
3 | ISIS 474610: 5-10-5 MOE gapmer antisense oligonucleotide targeting murine TTC39C (antisense eT*eT*eA*eA*eG*dA*dA*d[5mC]*dA*dA*dG*dT*dT*dG*dT*eG*e[5mC]*e[5mC]*e[5mC]*e[5mC]) | – | – | – | – | – | – | – | – | – | – | – | 10% | 28% | 38% | 65% | 71% | 2800 nM | 90%
4 | ISIS 474615: 5-10-5 MOE gapmer antisense oligonucleotide targeting murine TTC39C (antisense eG*eT*eA*e[5mC]*eG*dA*dG*dT*dT*dA*d[5mC]*dT*d[5mC]*dT*dG*e[5mC]*e[5mC]*eG*eA*e[5mC]) | – | – | – | – | – | – | – | – | – | – | – | 33% | 43% | 82% | 92% | 98% | 900 nM | 96%
5 | ISIS 474589: 5-10-5 MOE gapmer antisense oligonucleotide targeting murine TTC39C (antisense eT*e[5mC]*e[5mC]*eG*eA*dA*dA*dT*d[5mC]*dG*d[5mC]*dT*d[5mC]*dA*dG*e[5mC]*e[5mC]*eT*eG*e[5mC]) | – | – | – | – | – | – | – | – | – | – | – | 95% | 96% | 97% | 99% | 100% | – | 100%
6 | ISIS 474613: 5-10-5 MOE gapmer antisense oligonucleotide targeting murine TTC39C (antisense eT*eG*e[5mC]*eT*eT*dT*dA*dA*dT*d[5mC]*d[5mC]*dA*dA*d[5mC]*dG*eA*e[5mC]*eA*eG*eA) | – | – | – | – | – | – | – | – | – | – | – | 30% | 33% | 43% | 65% | 74% | 2100 nM | 90%
7 | ISIS 474535: 5-10-5 MOE gapmer antisense oligonucleotide targeting murine TTC39C (antisense eT*e[5mC]*e[5mC]*eA*e[5mC]*dT*dT*d[5mC]*dA*dT*dG*dG*d[5mC]*dA*dA*eG*e[5mC]*eT*eT*eG) | – | – | – | – | – | – | – | – | – | – | – | 18% | 35% | 61% | 83% | 93% | 1500 nM | 96%
8 | ISIS 474599: 5-10-5 MOE gapmer antisense oligonucleotide targeting murine TTC39C (antisense e[5mC]*eG*eT*eT*eG*dA*dT*dG*dT*d[5mC]*d[5mC]*dA*d[5mC]*dA*dT*eA*eG*e[5mC]*eA*e[5mC]) | – | – | – | – | – | – | – | – | – | – | – | 36% | 59% | 60% | 84% | 92% | 900 nM | 92%
9 | ISIS 474516: 5-10-5 MOE gapmer antisense oligonucleotide targeting murine TTC39C (antisense eT*eT*eA*eG*eT*dG*dG*dA*d[5mC]*dT*dA*dT*dG*dA*dT*eT*eT*e[5mC]*eT*eG) | – | – | – | – | – | – | – | – | – | – | – | 34% | 61% | 71% | 88% | 95% | 800 nM | 94%
